Tests used:
[1] = LD50 (acute toxicity, i.g.); conditions: in vivo, po, species not given
[2] = test system: Shay Rat; assay: antisecretory activity (Shay Rat); format: in vivo; conditions: i.g.
[3] = test system: Guinea pig cough; assay: Guinea pig cough (Antitussive); format: in vivo; conditions: Example 8 250 mg/kg equivalent to 150 mg/kg codeine
[4] = antiphlogistic (anti-inflammatory) activity; format: in vivo
[5] = analgesic activity; format: in vivo; conditions: dose not given

SMILES	LD50 [1] [mg/kg]	Activity: Guinea pig cough (Antitussive), equivalent dose [3] [mg/kg]	also measured
CC(C)C(=O)N=C1N=S(=O)(c2ccccc2)c2ccccc21 (stereo not shown) [Example 7, 3-(Isobutyrylimino)-1-phenyl-3H-1,2-benzisothiazole-1-oxide]	600	–	Activity: antisecretory (dose) [2]: 100 mg/kg
CS1(=O)=NC(=NC(=O)c2ccccc2O)c2ccccc21 (stereo not shown) [Example 8, 3-(Salicyloylimino)-1-methyl-3H-1,2-benzisothiazole-1-oxide]	1600	250	–
COc1ccc2c3c1O[C@H]1[C@@H](O)C=C[C@H]4[C@@H](C2)N(C)CC[C@@]341 [codeine, reference compound]	–	150	–
CCC(=O)N=C1N=S(=O)(c2ccccc2)c2ccccc21 (stereo not shown) [Example 6, 3-(Propionylimino)-1-phenyl-3H-1,2-benzisothiazole-1-oxide]	1600	–	Activity: antiphlogistic / anti-inflammatory (in words) ([4]; dose not given): Antiphlogistic; Activity: analgesic (in words) [5]: analgesic
CCOC(=O)N=C1N=S(=O)(c2ccccc2)c2ccccc21 (stereo not shown) [Example 12, 3-(Ethoxycarbonylimino)-1-phenyl-3H-1,2-benzisothiazole-1-oxide]	1600	–	Activity: antiphlogistic (dose) ([4]; dose at which antiphlogistic activity is stated, route and species not given): 250 mg/kg

— US3953464A, “Cyclic sulphoximides” (Warner-Lambert Company, priority 1973, dated 1976)
